± gives the expanded uncertainty stated by the source.
Assay: molar heat capacity at constant pressure; xn = mol fraction of the nth substance listed
Conditions: 101 kPa, Liquid, Large sample (1 g) DSC

COCCOCCOCCOC [2,5,8,11-tetraoxadodecane] + O
molar heat capacity at constant pressure [J/K/mol]
Conditions | x1 = 0.0999 | x1 = 0.1997 | x1 = 0.2967 | x1 = 0.3977 | x1 = 0.4983 | x1 = 0.5918 | x1 = 0.6926 | x1 = 0.7941 | x1 = 0.8686 | x1 = 1
303.15 K | 109 ± 5 | 141 ± 6 | 171 ± 7 | 198 ± 8 | 224 ± 10 | 250 ± 11 | 275 ± 12 | 300 ± 13 | 328 ± 14 | 359 ± 15
308.15 K | 110 ± 5 | 143 ± 6 | 173 ± 7 | 200 ± 9 | 227 ± 10 | 253 ± 11 | 278 ± 12 | 304 ± 13 | 332 ± 14 | 364 ± 15
313.15 K | 111 ± 5 | 144 ± 6 | 174 ± 7 | 202 ± 9 | 228 ± 10 | 254 ± 11 | 279 ± 12 | 306 ± 13 | 334 ± 14 | 366 ± 16
318.15 K | 112 ± 5 | 145 ± 6 | 175 ± 7 | 203 ± 9 | 229 ± 10 | 255 ± 11 | 281 ± 12 | 307 ± 13 | 335 ± 14 | 368 ± 16
323.15 K | 112 ± 5 | 146 ± 6 | 176 ± 7 | 204 ± 9 | 231 ± 10 | 256 ± 11 | 282 ± 12 | 309 ± 13 | 337 ± 14 | 370 ± 16
328.15 K | 113 ± 5 | 147 ± 6 | 177 ± 8 | 206 ± 9 | 232 ± 10 | 258 ± 11 | 283 ± 12 | 310 ± 13 | 339 ± 14 | 371 ± 16
333.15 K | 114 ± 5 | 148 ± 6 | 179 ± 8 | 207 ± 9 | 233 ± 10 | 259 ± 11 | 285 ± 12 | 312 ± 13 | 341 ± 14 | 373 ± 16
338.15 K | 114 ± 5 | 149 ± 6 | 180 ± 8 | 208 ± 9 | 235 ± 10 | 261 ± 11 | 286 ± 12 | 313 ± 13 | 342 ± 15 | 375 ± 16
343.15 K | 115 ± 5 | 150 ± 6 | 181 ± 8 | 210 ± 9 | 237 ± 10 | 263 ± 11 | 289 ± 12 | 316 ± 13 | 345 ± 15 | 379 ± 16
348.15 K | 116 ± 5 | 151 ± 6 | 183 ± 8 | 211 ± 9 | 238 ± 10 | 264 ± 11 | 290 ± 12 | 318 ± 14 | 347 ± 15 | 381 ± 16
353.15 K | 116 ± 5 | 152 ± 6 | 184 ± 8 | 212 ± 9 | 239 ± 10 | 265 ± 11 | 291 ± 12 | 318 ± 14 | 348 ± 15 | 382 ± 16

O=S1(=O)CCCC1 [sulfolane] + O
molar heat capacity at constant pressure [J/K/mol]
Conditions | x1 = 0.0999 | x1 = 0.1998 | x1 = 0.2987 | x1 = 0.3995 | x1 = 0.4945 | x1 = 0.5987 | x1 = 0.6984 | x1 = 0.7904 | x1 = 0.8865 | x1 = 1
303.15 K | 87 ± 4 | 100 ± 4 | 112 ± 5 | 124 ± 5 | 135 ± 6 | 145 ± 6 | 155 ± 7 | 164 ± 7 | 173 ± 7 | 182 ± 8
308.15 K | 88 ± 4 | 100 ± 4 | 113 ± 5 | 125 ± 5 | 136 ± 6 | 147 ± 6 | 156 ± 7 | 166 ± 7 | 175 ± 7 | 184 ± 8
313.15 K | 88 ± 4 | 101 ± 4 | 114 ± 5 | 126 ± 5 | 137 ± 6 | 148 ± 6 | 157 ± 7 | 167 ± 7 | 176 ± 7 | 185 ± 8
318.15 K | 88 ± 4 | 102 ± 4 | 114 ± 5 | 127 ± 5 | 138 ± 6 | 149 ± 6 | 159 ± 7 | 168 ± 7 | 177 ± 8 | 186 ± 8
323.15 K | 89 ± 4 | 102 ± 4 | 115 ± 5 | 128 ± 5 | 139 ± 6 | 150 ± 6 | 160 ± 7 | 170 ± 7 | 179 ± 8 | 188 ± 8
328.15 K | 89 ± 4 | 103 ± 4 | 116 ± 5 | 129 ± 6 | 141 ± 6 | 152 ± 6 | 162 ± 7 | 172 ± 7 | 181 ± 8 | 189 ± 8
333.15 K | 89 ± 4 | 104 ± 4 | 117 ± 5 | 130 ± 6 | 142 ± 6 | 153 ± 7 | 164 ± 7 | 173 ± 7 | 183 ± 8 | 191 ± 8
338.15 K | 90 ± 4 | 104 ± 4 | 118 ± 5 | 131 ± 6 | 143 ± 6 | 155 ± 7 | 165 ± 7 | 175 ± 7 | 184 ± 8 | 193 ± 8
343.15 K | 90 ± 4 | 105 ± 4 | 119 ± 5 | 132 ± 6 | 144 ± 6 | 156 ± 7 | 167 ± 7 | 177 ± 8 | 186 ± 8 | 194 ± 8
348.15 K | 91 ± 4 | 106 ± 5 | 120 ± 5 | 133 ± 6 | 146 ± 6 | 158 ± 7 | 169 ± 7 | 179 ± 8 | 188 ± 8 | 197 ± 8
353.15 K | 91 ± 4 | 107 ± 5 | 121 ± 5 | 135 ± 6 | 148 ± 6 | 160 ± 7 | 171 ± 7 | 181 ± 8 | 191 ± 8 | 199 ± 8
